“Also recorded” adds a separate entry of the source. Like-named read-outs stand apart in the source and are kept apart here.
Key:
PTP1B (PTP1B1-321) = molecular target: T1, PTP1B (PTP1B1-321) (Homo sapiens, UniProt P18031); test: PTP1B-catalyzed hydrolysis of pNPP in the presence of terpenoids (enzyme kinetics, IC50 from best-fit models); format: biochemical, H. sapiens; details: for IC50: 15 mM pNPP, 10% DMSO; for Ki: PTP1B1-321
T1 construct: His-tag; made in house; host or cells: E. coli BL21 (DE3), pET21b
T1 sequence (P18031 1-321): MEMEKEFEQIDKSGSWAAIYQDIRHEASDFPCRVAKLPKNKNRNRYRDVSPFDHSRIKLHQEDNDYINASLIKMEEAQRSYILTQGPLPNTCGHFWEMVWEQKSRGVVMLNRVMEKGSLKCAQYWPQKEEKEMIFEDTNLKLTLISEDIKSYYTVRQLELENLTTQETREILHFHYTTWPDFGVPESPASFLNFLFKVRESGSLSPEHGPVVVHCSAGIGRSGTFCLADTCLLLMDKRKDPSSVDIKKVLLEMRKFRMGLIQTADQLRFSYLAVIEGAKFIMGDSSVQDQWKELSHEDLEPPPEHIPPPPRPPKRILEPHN
Protocol: Enzyme kinetics. To examine terpenoid-mediated inhibition, PTP1B-catalyzed hydrolysis of p-nitrophenyl phosphate (pNPP) was measured in the presence of various concentrations of terpenoids. Each reaction included PTP1B ([…]), pNPP (0.33, 0.67, 2, 5, 10, and 15 mM), inhibitors (110 μM, 50 μM, and 15 μM for amorphadiene; 100 μM, 50 μM, and 16.7 μM for taxadiene), and buffer (50 mM HEPES pH=7.5, 0.5 mM TCEP, 50 μg/ml BSA, 10% DMSO). The formation of p-nitrophenol was monitored by measuring absorbance at 405 nm every 10 seconds for 5 minutes on a Spectramax M2 plate reader.
Kinetic models were evaluated in three steps: (i) Initial-rate measurements collected in the absence and presence of inhibitors were fitted to Michaelis-Menten and inhibition models, respectively (here, the nlinfit and fminsearch functions from MATLAB were used). (ii) An F-test was used to compare the mixed model to the single-parameter model with the least sum squared error (here, the fcdf function from MATLAB was used to assign p-values), and the mixed model was accepted when p<0.05.
The MATLAB function “nlparci” was used to determine the confidence intervals of kinetic parameters, and those intervals were propagated to estimate corresponding confidence on IC50's.
(§1) Enzyme kinetics. To examine terpenoid-mediated inhibition, we measured PTP-catalyzed hydrolysis of p-nitrophenyl phosphate (pNPP) or 4-methylumbelliferyl phosphate (4-MUP, used when KM for pNPP was large) in the presence of various concentrations of terpenoids. Each reaction included PTP (0.05 μM PTP1B/TCPTP or 0.1 μM SHP1/SHP2 in 50 mM HEPES, 0.5 mM TCEP, 50 μg/ml BSA), pNPP (0.33, 0.67, 2, 5, 10, and 15 mM) or 4-MUP (0.13, 0.27, 0.8, 2.27, 2.93, 4.53, 7.07, and 8 mM), inhibitor (with concentrations listed in the figures), buffer (50 mM HEPES pH=7.3, 50 μg/ml BSA), and DMSO at 10% v/v. We monitored the formation of p-nitrophenol by measuring absorbance at 405 nm every 10 seconds for 5 minutes on a SpectraMax M2 plate reader and the formation of 4-methylumbelliferyl by measuring fluorescence at 450 nm (370 nm ex, 435 nm cutoff, medium gain).
(§2) We used a custom MATLAB script to process all raw kinetic data. This script removed all concentration values that fell outside of either (i) the range of our standard curve (absorbance/fluorescence vs. μM; FIG. 39) or (ii) the initial rate regime (>10% of the pNPP or 4-MUP concentration used in the assay). When this step reduced kinetic dataset to fewer than ten points, we re-measured those datasets to collect at least ten. We fit final datasets, in turn, with a linear regression model (using Matlab's backslash operator).
We evaluated kinetic models in three steps: (i) We fit initial-rate measurements collected in the absence and presence of inhibitors to Michaelis-Menten and inhibition models, respectively (here, we used the nlinfit and fminsearch functions from MATLAB; TABLE 12). (ii) We used an F-test to compare the mixed model to the single-parameter model with the least sum squared error (here, we used the fedf function from MATLAB to assign p-values), and we accepted the mixed model when p<0.05.

[1] = molecular target: T2, PTP1B1-281 (PTP1B282 in FIG. 12) (Homo sapiens, UniProt P18031); test: pNPP hydrolysis by PTP1B lacking the α7 helix; format: biochemical, H. sapiens; details: for Ki: PTP1B1-281
T2 construct: made in house; host or cells: E. coli BL21 (DE3)
T2 sequence (P18031 1-281): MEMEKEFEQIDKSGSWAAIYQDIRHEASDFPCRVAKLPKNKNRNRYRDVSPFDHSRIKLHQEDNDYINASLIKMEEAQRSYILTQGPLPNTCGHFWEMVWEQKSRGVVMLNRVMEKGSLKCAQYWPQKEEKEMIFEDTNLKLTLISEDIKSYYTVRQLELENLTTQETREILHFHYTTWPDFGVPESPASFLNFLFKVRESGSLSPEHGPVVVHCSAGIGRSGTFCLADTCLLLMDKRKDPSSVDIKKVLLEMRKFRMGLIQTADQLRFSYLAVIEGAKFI
Protocol: as §1, §2
We evaluated kinetic models in three steps: (i) We fit initial-rate measurements collected in the absence and presence of inhibitors to Michaelis-Menten and inhibition models, respectively (here, we used the nlinfit and fminsearch functions from MATLAB; TABLE 12). (ii) We used an F-test to compare the mixed model to the single-parameter model with the least sum squared error (here, we used the fedf function from MATLAB to assign p-values), and we accepted the mixed model when p<0.05. (iii) We used the Akaike's Information Criterion (AIC) to compare the best-fit single parameter model to each alternative single parameter model, and we accepted the “best-fit” model when the difference in AIC (Δi) exceed 5 for all comparisons.^78 We note: For AD, AB, and (+) 1-(10),4-cadinadiene this criterion was not met; both noncompetitive and uncompetitive models, however, yielded indistinguishable ICso's.
We used the MATLAB function “nlparci” to determine the confidence intervals of kinetic parameters, and we propagated those intervals to estimate corresponding confidence intervals for each IC50.

PTP1B = molecular target: T3, PTP1B (Homo sapiens, UniProt P18031); format: cell-based, H. sapiens; details: terpenoid produced in the cell by its metabolic pathway
T3 construct: In this study, we used a well-studied truncation variant (i.e., PTP1B1-321); His-tag; made in house; host or cells: E. coli BL21 (DE3), pET21b
T3 sequence (P18031 1-321): T1 sequence (P18031 1-321)

[2] = Example 2, HEPES pH 7.3, ± 95% confidence interval
[3] = competitive model of inhibition, read-out: Fit par. Ki, competitive model
[4] = mixed model, competitive constant, read-out: Fit par. Ki,c, mixed model
[5] = mixed model, uncompetitive constant, read-out: Fit par. Ki,u, mixed model
[6] = noncompetitive model of inhibition, read-out: Fit par. Ki, noncompetitive model
[7] = uncompetitive model of inhibition, read-out: Fit par. Ki, uncompetitive model

Question: What does the source list for C=C(C)[C@@H]1CC[C@@H](C)[C@@H]2CCC(C)=C[C@@H]21 [amorphadiene]?
Answer: IC50 (PTP1B (PTP1B1-321); Example 1, HEPES pH 7.5): ~53 µM; IC50 (PTP1B (PTP1B1-321); [2]): 53 ± 8 µM; Ki (PTP1B (PTP1B1-321); [3]): 2.85 µM; Ki (PTP1B (PTP1B1-321); [4]): 86.2 µM; Ki (PTP1B (PTP1B1-321); [5]): 50.1 µM; Ki (PTP1B (PTP1B1-321); [6]): 52.6 µM; Ki (PTP1B (PTP1B1-321); [7]): 46.3 µM; simultaneous binding with TCS401 (Dixon plot) (PTP1B (PTP1B1-321); Vo^−1 vs. [TCS401] at various concentrations of AD): cannot bind simultaneously; simultaneous binding with orthovanadate (Dixon plot) (PTP1B (PTP1B1-321); Vo^−1 vs. [orthovanadate] at various concentrations of AD): can bind simultaneously; model (mode) of PTP1B inhibition from Michaelis-Menten fits (PTP1B (PTP1B1-321); pNPP initial rates): noncompetitive or uncompetitive inhibition; also recorded: noncompetitive inhibition; Ki [1, 3]: 37.9 µM; Ki [1, 4]: 157 µM; Ki [1, 5]: 271 µM; Ki [1, 6]: 244 µM; Ki [1, 7]: 210 µM; potency against PTP1B282 (no α7 helix) relative to PTP1B321 ([1]; pNPP, less potent on PTP1B282): ~ four-fold; survival of E. coli with PTP1B B2H system on spectinomycin (PTP1B): permitted survival at high concentrations of antibiotic

Question: How did the IC50 (PTP1B (PTP1B1-321); Example 1, HEPES pH 7.5) turn out when CC(C)=CCC=C(C)C1CC=C(C)CC1 (stereo not drawn) [α-bisabolene] was run?
Answer: ~20 µM

Question: And the IC50 (PTP1B (PTP1B1-321); [2])?
Answer: 13 ± 2 µM

Question: What about the Ki (PTP1B (PTP1B1-321); [3]) of the same compound?
Answer: 1.05 µM

Question: And the Ki (PTP1B (PTP1B1-321); [4])?
Answer: 9.51 µM

Question: What about the Ki (PTP1B (PTP1B1-321); [5]) of the same compound?
Answer: 13.7 µM

Question: And the Ki (PTP1B (PTP1B1-321); [6])?
Answer: 13.1 µM

Question: And the Ki (PTP1B (PTP1B1-321); [7])?
Answer: 11.7 µM

Question: And the Ki [1, 3]?
Answer: 6.51 µM

Question: And the Ki [1, 4]?
Answer: 39 µM

Question: And the Ki [1, 5]?
Answer: 47.7 µM

Question: What about the Ki [1, 6] of the same compound?
Answer: 46.3 µM

Question: What about the Ki [1, 7] of the same compound?
Answer: 40 µM

Question: And the “survival of E. coli with PTP1B B2H system on spectinomycin” value (PTP1B)?
Answer: permitted survival at high concentrations of antibiotic
